“Also recorded” adds a separate entry of the source. Blank lines part the entries; values can stand above or below the compound they belong to.
Experiments:
[1] = target: T1, 5‐LO (Homo sapiens, UniProt P09917); assay: Biosynthesis of 5‐LO products in stimulated HEK293 cells expressing 5‐LO and FLAP; assay type: cell-based; design: expressed in transfected cells; host or cells: HEK293 cells (ATCC), stably transfected; settings: 1 μmol/L, 5 min preincubation; 10 μmol/L A23187 + 10 μmol/L arachidonic acid 15 min
T1 sequence (P09917 1-674): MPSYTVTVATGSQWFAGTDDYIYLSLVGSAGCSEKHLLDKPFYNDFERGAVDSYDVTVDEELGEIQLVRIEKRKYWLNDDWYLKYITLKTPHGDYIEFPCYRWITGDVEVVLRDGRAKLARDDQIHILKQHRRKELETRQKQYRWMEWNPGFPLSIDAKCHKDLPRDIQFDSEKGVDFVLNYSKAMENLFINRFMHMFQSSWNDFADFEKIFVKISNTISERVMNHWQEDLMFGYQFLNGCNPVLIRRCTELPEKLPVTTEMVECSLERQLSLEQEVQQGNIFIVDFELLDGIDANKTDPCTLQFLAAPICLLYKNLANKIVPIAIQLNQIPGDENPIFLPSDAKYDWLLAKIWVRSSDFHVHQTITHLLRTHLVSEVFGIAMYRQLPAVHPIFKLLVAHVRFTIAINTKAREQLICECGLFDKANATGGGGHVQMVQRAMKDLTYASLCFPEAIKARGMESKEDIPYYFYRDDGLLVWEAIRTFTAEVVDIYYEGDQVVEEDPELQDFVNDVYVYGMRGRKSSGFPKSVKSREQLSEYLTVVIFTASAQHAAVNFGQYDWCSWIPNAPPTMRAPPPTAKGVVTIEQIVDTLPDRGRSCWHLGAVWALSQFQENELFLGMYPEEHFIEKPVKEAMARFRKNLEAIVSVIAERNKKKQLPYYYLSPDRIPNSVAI
Method: HEK293 cells were obtained from ATCC (Manassas) and were cultured in Dulbecco’s Modified Eagle Medium (DMEM) supplemented with 10% fetal bovine serum. Cells were stably transfected with 5‐lipoxygenase and 5‐lipoxygenase activating protein (FLAP) as previously described.31
Transfected HEK293 cells were collected and resuspended in Hank's balanced salt solution (HBSS, Lonza) containing 1.6 mmol/L CaCl2 at a concentration of 5 × 10^5 cells/mL, and were preincubated with each compound at concentration of 1 µmol/L for 5 minutes at 37°C. Cells were then stimulated for 15 minutes at 37°C with the addition of 10 µmol/L calcium ionophore A23187 (Sigma‐Aldrich) and 10 µmol/L arachidonic acid (Cayman Chemical).28 Stimulations were stopped by adding 0.5 volume of cold CH3OH:CH3CN (1:1) containing 100 ng/mL of prostaglandin B2 (PGB2) as internal standard. Samples were stored at −20°C and analyzed for 5‐LO products using reversed‐phase high‐performance liquid chromatography (RP‐HPLC) as described previously.32
Figure 2 The structures of the tested compounds (A) and their effects on the biosynthesis of 5‐LO products in transfected HEK293 cells (B). HEK293 cells expressing 5‐LO and FLAP were incubated in presence of the indicated compounds (1 μmol/L) or their diluent (Control, 0.1% DMSO) for 5 minutes, followed by the addition of 10 μmol/L calcium ionophore A23187 and 10 μmol/L arachidonic acid for 15 minutes. Reactions were then stopped, and samples were processed for analysis of 5‐LO products using RP‐HPLC. Total 5‐LO products measured represent the sum of LTB4, its trans isomers and 5‐hydroxyeicosatetraenoic acid. Data are expressed as means ± SEM of at least three independent experiments. *Difference from control as determined using one‐way ANOVA with Dunnett's multiple comparison test (P < .05)

[2] = test system: HepaRG cells; assay: Residual inhibition of 5‐LO product biosynthesis in blood after incubation with HepaRG cells; assay type: in vitro ADME, human; settings: 50 µmol/L with HepaRG cells, after 60 minutes; medium added to blood, zymosan, LTB4
Method: (§1) Differentiated HepaRG cells, plated in 24 well plates, were washed with hepatocyte suspension medium (Williams E‐medium without phenol red, supplemented with 2 mmol/L Glutamax and […] HEPES) before addition of hepatocyte suspension medium (250 µL/well) containing (30 or 50 µmol/L) of the test compounds or their diluent. Cells were then incubated for 7.5, 15, 30, 60 or 90 minutes at 37°C after which the medium was removed.
In experiments where the inhibitory capacity of test compounds was to be determined after incubation with HepaRG cells, 125 µL of the hepatocyte suspension medium containing test compounds that had been collected at different time points from HepaRG cultures was added to 1 mL of heparinized blood. After a 5 minutes of preincubation, blood was then stimulated with opsonized zymosan and processed for HPLC analysis of 5‐LO metabolites as described above.
Figure 6 Stability of the test compounds for the inhibition of the biosynthesis of 5‐LO products following incubation with HepaRG cells. HepaRG cells were incubated with […] of hepatocyte suspension medium containing 50 µmol/L of test compounds for the indicated times at 37°C. Hepatocyte suspension medium (125 µL) was then removed and added to 1 mL of blood that was then incubated for 5 minutes and then stimulated with opsonized zymosan (4 mg/mL) for 30 minutes at 37°C. Blood was then centrifuged and plasma was collected and added to 1.2 mL of CH3OH:CH3CN (1:1). Samples were processed for analysis using RP‐HPLC for LTB4 quantification. Data are expressed as means ± SEM of at least three independent experiments. *Difference from time = 0, as determined using One‐way ANOVA with Dunnett's multiple comparison test (P < .05)

[3] = test system: HepaRG cells; assay: Kinetics of test compound disappearance in HepaRG cell culture (HPLC); assay type: in vitro ADME, human; settings: 30 µmol/L, 37°C; mean (95% confidence interval), four experiments
Method: Undifferentiated cryopreserved HepaRG cells (BioPredic International) were seeded in 12 or 24 well plates at 1.1 × 10^5 and 0.55 × 10^5 cells per well, respectively. Cells were cultured for 14 days in Williams E‐medium supplemented with 1% penicillin‐streptomycin (10 000 U/mL), 10% fœtal bovine serum (FBS), 50 mg/L hydrocortisone hemisuccinate, 5 mg/L insulin and 2 mmol/L Glutamax, and the medium was renewed every 2‐3 days. After 14 days, the culture medium was replaced by the same formulation as above supplemented with 2% dimethyl sulfoxide (DMSO) to induce differentiation. Cells were considered differentiated and ready for experiments after 14 days of differentiation (28 days after seeding).
as §1
In experiments where the test compounds incubated with HepaRG cells were to be measured, the cell layer was washed with 250 µL of hepatocyte suspension medium which was then pooled with the first medium. The mixture was then added to 250 µL of ice cold CH3OH:CH3CN (1:1, vol:vol) containing 10 µmol/L of phenethyl 3,4,5‐trimethoxycinnamate as an internal standard. The resulting solution was frozen at −80°C for 2 hour to precipitate any dissolved proteins, centrifuged at 1800g and the supernatant transferred to vials and stored at −20°C until HPLC analysis.
Figure 5 Kinetics of test compound disappearance in HepaRG cell culture. (A) HepaRG cells were incubated in 250 µL of hepatocyte suspension medium containing 30 µmol/L of test compounds for the indicated times at 37°C. Supernatants were removed and added to 250 µL of ice cold CH3OH:CH3CN (1:1 vol:vol) containing 10 µmol/L of phenethyl 3,4,5‐trimethoxycinnamate as an internal standard. The cell layer was washed with 250 µL of hepatocyte suspension medium and added to the above mixture. Samples were centrifuged at 1900g and the supernatants were collected for HPLC analysis as described in the Methods. Values are means ± SEM. (B) Calculated half‐lives of the test compounds in HepaRG cell cultures. Values are means (95% confidence interval). All data are from four independent experiments TEXT PRINTED IN THE PICTURE: (B) CAPE (2): Half-life (Minutes): 4.70 (4.42 - 5.02) | (B) 7: Half-life (Minutes): 6.42 (5.72 -7.31) | (B) 5: Half-life (Minutes): 3.71 (3.67-3.74) | (B) 8: Half-life (Minutes): 6.48 (6.01-7.04) | (B) 9: Half-life (Minutes): 4.38 (4.23 - 4.55) | (B) 10: Half-life (Minutes): 11.32 (10.21- 12.71)

[4] = target: T1, 5‐LO; assay: Biosynthesis of 5‐LO products in thapsigargin‐stimulated human PMNL; assay type: cell-based; design: endogenous in cells; host or cells: human polymorphonuclear leukocytes isolated from heparinized blood; settings: 5‐LO product biosynthesis in human PMNL; mean (95% confidence interval)
Method: Heparinized blood (see Ethics statement) was collected, centrifuged at 200g for 10 minutes to collect plasma, and erythrocytes were sedimented in dextran. PMNL were obtained after centrifugation on a lymphocyte separation medium cushion (density, 1.077 g/mL) (Wisent) at 900 g for 20 minutes, followed by hypotonic lysis to remove residual erythrocytes.33 PMNL were counted and resuspended at 10^7 cells/mL in HBSS supplemented with 1.6 mmol/L CaCl2 and 0.3 U/mL adenosine deaminase (Sigma‐Aldrich). PMNL were preincubated with the test compounds or their diluent (0.1% DMSO) for 5 minutes at 37°C and were then stimulated with 1 µmol/L thapsigargin (Sigma‐Aldrich) for 15 minutes at 37°C.27 Reactions were stopped by adding two volumes of CH3OH:CH3CN (1:1) containing the internal standard PGB2 (100 ng/mL), and samples were processed for RP‐HPLC analysis of 5‐LO products.
(A) The structures of CAPE (2) and its analogues investigated in this study. (B) Isolated human PMNL were incubated in presence of test compounds (1 μmol/L) or their diluent (Control, 0.1% DMSO) for 5 minutes. PMNL were stimulated with 1 μmol/L of thapsigargin for 15 minutes at 37°C. The stimulation was then stopped, and samples were processed for analysis of 5‐LO products using RP‐HPLC. Total 5‐LO products measured represent LTB4, its trans isomers, 20‐OH‐LTB4, 20‐COOH‐LTB4 and 5‐hydroxyeicosatetraenoic acid. Data are expressed as means ± SEM of at least three independent experiments. *Difference from control, as determined using one‐way ANOVA with Dunnett's multiple comparison test (P < .05)

[5] = target: T1, 5‐LO; assay: Ex vivo whole blood stimulation with opsonized zymosan, 5‐LO products; assay type: cell-based; design: endogenous in cells; host or cells: human polymorphonuclear leukocytes isolated from heparinized blood; settings: 5‐LO product biosynthesis in whole blood, mean (95% confidence interval)
Method: Blood was collected in tubes containing heparin as anticoagulant. Test compounds or their diluent control (DMSO, 0.1%) were added to 1 mL of heparinized blood at the indicated concentrations and incubated for 5 minutes in a water bath at 37°C. Stimulation was initiated with the addition of 125 μL of 40 mg/mL of opsonized zymosan, samples were then gently vortexed and incubated at 37°C for 30 minutes.34 Samples were then centrifuged at 960g for 10 minutes at 4°C, plasma was removed and added to tubes containing 4 volumes of CH3OH:CH3CN (1:1) containing 100 ng/mL of PGB2 as internal standard. Samples were stored overnight at −20°C, and then centrifuged at 3300g for 10 minutes. Samples were then purified on C18 cartridges, were eluted with CH3OH, dried under nitrogen, resuspended in 46% of CH3OH:CH3CN (1:1), and analyzed using RP‐HPLC as described above.

[6] = test system: 5‐LO; settings: cited from earlier work

Inhibition of biosynthesis of 5‐LO products in transfected HEK293 cells [1]: very good inhibitory activity
Structure (SMILES): O=C(/C=C/c1cccc(O)c1O)OCCc1ccccc1 [compound 3]

Inhibitory activity against 5‐LO product biosynthesis after incubation with HepaRG cells [2]: steady manner over time
Inhibition of biosynthesis of 5‐LO products in transfected HEK293 cells [1]: less effective than CAPE (2)
Structure (SMILES): CC(c1cc2ccccc2s1)N(O)C(N)=O (stereo not shown) [Zileuton (1), Zileuton, reference compound]

Half-life in HepaRG cell cultures [3]: 4.38 (4.23 - 4.55) Minutes
Inhibitory activity against 5‐LO product biosynthesis after incubation with HepaRG cells [2]: lost all their inhibitory activity
IC50 [4]: 290 nM
IC50 [5]: 1910 nM
Structure (SMILES): COc1cc(/C=C/C(=O)OCCc2ccccc2)cc(OC)c1O [compound 9, sinapic acid phenethylester]

Structure (SMILES): O=C(C=Cc1ccccc1)OCCc1ccccc1 [cinnamic acid phenethyl ester]
Inhibition of LT biosynthesis ([6]; at concentrations up to 10 µmol/L): do not inhibit LT biosynthesis

Structure (SMILES): O=C(C=Cc1ccc(O)c(O)c1)NCCc1ccccc1 [amide analogue of CAPE]
Inhibition of LT biosynthesis and 5‐LO activity [6]: reduced potency compared to CAPE

Structure (SMILES): O=C(O)/C=C/c1ccc(O)c(O)c1 [caffeic acid]
Inhibition of LT biosynthesis and 5‐LO activity [6]: poor 5‐LO inhibitor

Structure (SMILES): O=C(CCc1ccc(O)c(O)c1)OCCc1ccccc1 [saturated form of CAPE (2)]
Inhibition of 5‐LO product biosynthesis [6]: as effective

Structure (SMILES): O=C(/C=C/c1ccc(O)cc1O)OCCc1ccccc1 [compound 4]
Inhibition of biosynthesis of 5‐LO products in transfected HEK293 cells [1]: without measurable effect; also recorded: without inhibitory activity

Structure (SMILES): O=C(/C=C/c1cc(O)cc(O)c1)OCCc1ccccc1 [compound 6]
Inhibition of biosynthesis of 5‐LO products in transfected HEK293 cells [1]: without measurable effect; also recorded: without inhibitory activity

Source: paper PMC6743424, “Phenolic acid phenethylesters and their corresponding ketones: Inhibition of 5‐lipoxygenase and stability in human blood and HepaRG cells” (Pharmacology Research & Perspectives, 2019)
